Experimental data taken from patent US9492447B2, “Cannabinoid receptor modulators” (Arena Pharmaceuticals, Inc., priority 2011, dated 2016).

Experiments:
Assay type in all cases: in vivo, rat
[1] = test system: MIA model of osteoarthritis in rats; experiment: Monosodium iodoacetate (MIA) model of osteoarthritis pain; settings: 3, 10 and 30 mg/kg orally; one hour after dosing; FIG. 2
From the text: Injection of monosodium iodoacetate (MIA) into a joint (Kalbhen, 1987) inhibits the activity of glyceraldehyde-3-phosphate dehydrogenase in chondrocytes, resulting in disruption of glycolysis and eventually in cell death. The progressive loss of chondrocytes results in histological and morphological changes of the articular cartilage, closely resembling those seen in osteoarthritis patients.
The osteoarthritis was induced in 200 g male Sprague Dawley rats. […]
Typically during disease progression, there was an inflammation period of 0-7 days post-intra-articular injection followed by progressive degeneration of the cartilage and subchondral bone from days 14-55. […] Tactile allodynia was measured via von Frey assay, hind limb paw weight distribution was monitored using an incapacitence tester (Columbus Instruments, Columbus, Ohio, USA) and hind limb grip strength was measured using a grip strength meter (Columbus Instruments, Columbus, Ohio, USA). […] Hind paw weight distribution was determined by placing rats in a chamber so that each hind paw rests on a separate force plate of the incapacitence tester. The force exerted by each hind limb (measured in grams) is averaged over a 3 second period. Three measurements were taken for each rat, and the change in hind paw weight distribution calculated. […]

[2] = test system: FCA-induced hyperalgesia in rats; experiment: FCA-induced hyperalgesia model of inflammatory pain; settings: 0.1, 1, 3, 10 and 30 mg/kg orally; 1 h post dosing; Analgesy-Meter; FIG. 1
Method: Male Sprague Dawley rats from Harlan (200-225 g when received) were used. Upon arrival, rats were housed 4 per cage in shoe-box polycarbonate cages with wire tops, wood chip bedding and suspended food and water bottles. Animals were acclimated for 5-7 days prior to being injected with Freund's complete adjuvant (FCA) (Sigma; catalog #5881).
2 days (48 h) before testing compounds, baseline readings of all rats were taken right before FCA injection. Rats were then injected with 50 μL FCA containing 1 mg/mL Mtb (Mycobacterium tuberculosis) in right hind footpad under inhalation anesthesia (isoflurane). 48 hours after FCA injection, readings were taken as pre-dosing baseline and then rats were dosed orally with 0.5 mL of vehicle or compound (0.5 mL per 250 g rat). Readings were taken again at 1 h post dosing. All readings were taken with an Analgesy-Meter (Ugo Basile) which measures mechanical hyperalgesia via paw pressure.
FCA-induced hyperalgesia was tested with an Analgesy-Meter. Briefly, the Analgesy Meter applied an increasing pressure to the right hind paw. The paw withdrawal threshold was the pressure leading to withdrawal.
Meanwhile a group of rats were dosed orally with 50 mg/kg of Diclofenac as a positive control. Readings were taken again at 1 h post dosing. Dosing volume was 500 μL per 250 g rat.

[3] = test system: paclitaxel-induced allodynia in Sprague Dawley rats; experiment: Paclitaxel-induced allodynia; settings: 10 mg/kg orally
Method: Therapy however is often associated with the unwanted side affects of painful peripheral neuropathy.
Male Sprague Dawley rats [200-250 g](Harlan Laboratories Inc., Livermore, Calif.) were housed three per cage and maintained in a humidity-controlled (40-60%) and temperature-controlled (68-72° F.) facility on a 12 h: 12 h light/dark cycle (lights on at 6:30 am) with free access to food (Harlan Teklad, Orange, Calif., Rodent Diet 8604) and water. Rats were allowed one week of habituation to the animal facility before starting treatment.
Rats were treated intraperitoneally, with 2 mg/kg of paclitaxel (Sigma Aldrich, Saint Louis, Mo.) in 10% Cremophor vehicle (500 μL) on days 0, 2, 4, and 6.
Tactile allodynia was tested using von Frey filaments. Briefly, the von Frey assay was performed using the standardized up down method with von Frey filaments, that determine the tactile sensitivity of the paw. By applying the increasingly or decreasingly thicker filaments to the paw in a logarithmic scale of actual force, a linear scale of perceived intensity is determined.
Eight days after the start of paclitaxel dosing, a baseline measurement (von Frey assay) was performed prior to dosing of compounds. […] As a positive control, rats were dosed intraperitoneally with 100 mg/kg gabapentin in water. The dosing volume for oral and peritoneal treatment was 500 μL. […]

CC(C)(CO)NC(=O)c1nn(-c2ccc(F)cc2F)c2c1C[C@H]1C[C@@H]21 [Compound 493, (1aR,5aR)-2-(2,4-Difluoro-phenyl)-1a,2,5,5a-tetrahydro-1H-2,3-diaza-cyclopropa[a]pentalene-4-carboxylic Acid (2-Hydroxy-1,1-dimethyl-ethyl)-amide]
Increase in paw withdrawal threshold (PWT) in comparison with vehicle [1]: exhibiting therapeutic efficacy
increase in paw withdrawal threshold (PWT) in comparison with the vehicle [2]: exhibited therapeutic efficacy
time of maximum efficacy post-dosing ([3]; time course): 1 h
increase in paw withdrawal threshold (PWT) in comparison with vehicle and gabapentin ([3]; von Frey 30, 60 and 180 minutes after dosing, FIG. 3): exhibiting therapeutic efficacy
